± gives the expanded uncertainty stated by the source.
Tests used:
[1] = xn = mol fraction of the nth substance listed; details: 298.15 K, 101 kPa, Liquid
[2] = excess molar enthalpy (molar enthalpy of mixing); xn = mol fraction of the nth substance listed; details: 298.15 K, 101 kPa, Liquid, Calvet calorimetry

ClCCCCl [1,3-dichloropropane] + COC=O
Details | excess molar enthalpy [kcal/mol] | mass density [kg/m3]
[1], x2 = 0.0849 | – | 1165.85 ± 0.65
[1], x2 = 0.165 | – | 1152.81 ± 0.63
[1], x2 = 0.244 | – | 1139.5 ± 0.6
[1], x2 = 0.3177 | – | 1126.33 ± 0.57
[1], x2 = 0.386 | – | 1113.56 ± 0.55
[1], x2 = 0.4563 | – | 1099.9 ± 0.52
[1], x2 = 0.5138 | – | 1088.31 ± 0.5
[1], x2 = 0.5789 | – | 1074.43 ± 0.47
[1], x2 = 0.635 | – | 1062.04 ± 0.45
[1], x2 = 0.688 | – | 1049.82 ± 0.42
[1], x2 = 0.7384 | – | 1037.54 ± 0.4
[1], x2 = 0.7876 | – | 1025.35 ± 0.37
[1], x2 = 0.8341 | – | 1013.43 ± 0.35
[1], x2 = 0.878 | – | 1001.59 ± 0.33
[1], x2 = 0.9206 | – | 989.81 ± 0.34
[1], x2 = 0.9607 | – | 978.24 ± 0.35
[2], x2 = 0.0855 | 0.0211 ± 0.000359 | –
[2], x2 = 0.2024 | 0.0493 ± 0.000574 | –
[2], x2 = 0.3078 | 0.0673 ± 0.000717 | –
[2], x2 = 0.4178 | 0.0803 ± 0.000813 | –
[2], x2 = 0.4624 | 0.08236 ± 0.000813 | –
[2], x2 = 0.4877 | 0.0832 ± 0.000837 | –
[2], x2 = 0.5024 | 0.08372 ± 0.000837 | –
[2], x2 = 0.5476 | 0.0843 ± 0.000837 | –
[2], x2 = 0.5583 | 0.08203 ± 0.000813 | –
[2], x2 = 0.5978 | 0.0807 ± 0.000813 | –
[2], x2 = 0.6499 | 0.078 ± 0.000789 | –
[2], x2 = 0.7069 | 0.0738 ± 0.000765 | –
[2], x2 = 0.7674 | 0.0679 ± 0.000717 | –
[2], x2 = 0.8297 | 0.0585 ± 0.000645 | –
[2], x2 = 0.893 | 0.0448 ± 0.00055 | –
[2], x2 = 0.9533 | 0.0246 ± 0.000406 | –

CCCCCOC=O [pentyl methanoate] + ClCCCCCCl
Details | excess molar enthalpy [kcal/mol] | mass density [kg/m3]
[1], x1 = 0.0607 | – | 1082.26 ± 0.49
[1], x1 = 0.1185 | – | 1069.95 ± 0.46
[1], x1 = 0.1761 | – | 1057.7 ± 0.44
[1], x1 = 0.2336 | – | 1045.52 ± 0.41
[1], x1 = 0.2924 | – | 1033.04 ± 0.39
[1], x1 = 0.3501 | – | 1020.86 ± 0.36
[1], x1 = 0.4661 | – | 996.38 ± 0.33
[1], x1 = 0.5254 | – | 983.92 ± 0.34
[1], x1 = 0.6434 | – | 959.15 ± 0.37
[1], x1 = 0.7028 | – | 946.7 ± 0.39
[1], x1 = 0.7612 | – | 934.48 ± 0.4
[1], x1 = 0.8194 | – | 922.34 ± 0.41
[1], x1 = 0.8788 | – | 909.95 ± 0.43
[1], x1 = 0.9368 | – | 897.88 ± 0.44
[2], x1 = 0.0613 | -0.00304 ± 0.000215 | –
[2], x1 = 0.141 | -0.00758 ± 0.000239 | –
[2], x1 = 0.2146 | -0.0133 ± 0.000287 | –
[2], x1 = 0.2884 | -0.0206 ± 0.000359 | –
[2], x1 = 0.3563 | -0.0273 ± 0.000406 | –
[2], x1 = 0.4177 | -0.0314 ± 0.00043 | –
[2], x1 = 0.4725 | -0.0349 ± 0.000454 | –
[2], x1 = 0.5239 | -0.0355 ± 0.000454 | –
[2], x1 = 0.5551 | -0.0363 ± 0.000478 | –
[2], x1 = 0.6165 | -0.0347 ± 0.000454 | –
[2], x1 = 0.6887 | -0.0321 ± 0.00043 | –
[2], x1 = 0.7706 | -0.0272 ± 0.000406 | –
[2], x1 = 0.8586 | -0.0187 ± 0.000335 | –
[2], x1 = 0.9347 | -0.00997 ± 0.000263 | –

ClCCCCCl [1,4-dichlorobutane] + CCOC=O
Details | excess molar enthalpy, [2] [kcal/mol] | mass density, [1] [kg/m3]
x2 = 0.0774 | – | 1120.56 ± 0.56
x2 = 0.083 | 0.0262 ± 0.000406 | –
x2 = 0.1549 | – | 1107.96 ± 0.54
x2 = 0.1706 | 0.042 ± 0.000526 | –
x2 = 0.229 | – | 1095.35 ± 0.51
x2 = 0.256 | 0.0527 ± 0.000598 | –
x2 = 0.2982 | – | 1083.08 ± 0.49
x2 = 0.3368 | 0.0584 ± 0.000645 | –
x2 = 0.3653 | – | 1070.71 ± 0.46
x2 = 0.4094 | 0.0582 ± 0.000645 | –
x2 = 0.4302 | – | 1058.33 ± 0.44
x2 = 0.473 | 0.055 ± 0.000621 | –
x2 = 0.4921 | – | 1046.05 ± 0.41
x2 = 0.5279 | 0.0505 ± 0.000574 | –
x2 = 0.5517 | – | 1033.83 ± 0.39
x2 = 0.5977 | 0.0395 ± 0.000502 | –
x2 = 0.6131 | – | 1020.82 ± 0.36
x2 = 0.6452 | 0.034 ± 0.000454 | –
x2 = 0.6683 | – | 1008.67 ± 0.34
x2 = 0.6966 | 0.025 ± 0.000382 | –
x2 = 0.7211 | – | 996.7 ± 0.33
x2 = 0.7477 | 0.0167 ± 0.000311 | –
x2 = 0.7717 | – | 984.84 ± 0.34
x2 = 0.803 | 0.0108 ± 0.000263 | –
x2 = 0.8212 | – | 973.13 ± 0.35
x2 = 0.8543 | 0.00633 ± 0.000239 | –
x2 = 0.8674 | – | 961.66 ± 0.37
x2 = 0.907 | 0.00373 ± 0.000215 | –
x2 = 0.9134 | – | 949.8 ± 0.38
x2 = 0.9569 | 0.00222 ± 0.000215 | 938.37 ± 0.4

ClCCCCCCl [1,5-dichloropentane] + CCOC=O
Details | excess molar enthalpy [kcal/mol] | mass density [kg/m3]
[1], x2 = 0.0955 | – | 1084.27 ± 0.49
[1], x2 = 0.1752 | – | 1074.48 ± 0.47
[1], x2 = 0.2534 | – | 1064.51 ± 0.45
[1], x2 = 0.3284 | – | 1054.28 ± 0.43
[1], x2 = 0.3985 | – | 1044.1 ± 0.41
[1], x2 = 0.4628 | – | 1034.31 ± 0.39
[1], x2 = 0.5327 | – | 1023.03 ± 0.37
[1], x2 = 0.5897 | – | 1013.34 ± 0.35
[1], x2 = 0.6456 | – | 1003.36 ± 0.33
[1], x2 = 0.698 | – | 993.61 ± 0.33
[1], x2 = 0.7473 | – | 983.9 ± 0.34
[1], x2 = 0.7941 | – | 974.37 ± 0.35
[1], x2 = 0.8401 | – | 964.52 ± 0.36
[1], x2 = 0.8829 | – | 954.89 ± 0.38
[1], x2 = 0.9235 | – | 945.49 ± 0.39
[1], x2 = 0.9625 | – | 936.01 ± 0.4
[2], x2 = 0.1024 | 0.0337 ± 0.000454 | –
[2], x2 = 0.2043 | 0.0534 ± 0.000598 | –
[2], x2 = 0.2974 | 0.0705 ± 0.000741 | –
[2], x2 = 0.3848 | 0.0801 ± 0.000813 | –
[2], x2 = 0.4598 | 0.0825 ± 0.000837 | –
[2], x2 = 0.5273 | 0.081 ± 0.000813 | –
[2], x2 = 0.5845 | 0.0767 ± 0.000789 | –
[2], x2 = 0.6305 | 0.071 ± 0.000741 | –
[2], x2 = 0.6809 | 0.062 ± 0.000669 | –
[2], x2 = 0.7286 | 0.0551 ± 0.000621 | –
[2], x2 = 0.7798 | 0.0454 ± 0.00055 | –
[2], x2 = 0.8289 | 0.0355 ± 0.000478 | –
[2], x2 = 0.8791 | 0.0261 ± 0.000406 | –
[2], x2 = 0.9215 | 0.0166 ± 0.000335 | –
[2], x2 = 0.9634 | 0.0075 ± 0.000263 | –
